These results are taken from PMC6270209, “Synthesis, Antimycobacterial Activity and In Vitro Cytotoxicity of 5-Chloro-N-phenylpyrazine-2-carboxamides” (Molecules, 2013).

Series [1] relates to M. tuberculosis H37Rv CNCTC My 331/88. In words: In vitro antimycobacterial activity, microdilution panel method (MIC). The series is classed as cell-based, Mycobacterium tuberculosis. (In general: In broth dilution the organism is exposed to a series of concentrations in liquid medium.)
Series [2] relates to M. kansasii Hauduroy CNCTC My 235/80. Described as above. Format: cell-based, Mycobacterium kansasii. The note with it: for MIC: Mycobacterium kansasii.
Series [3] concerns M. avium ssp. avium Chester CNCTC My 80/72. The series is described as above. Format: cell-based, Mycobacterium avium. To be noted: for MIC: Mycobacterium avium.
For a further series, the system named is M. avium CNCTC My 152/73. The description is as above. Format: cell-based, Mycobacterium avium. The note with it: for MIC: Mycobacterium avium.
The test system of series [4] is HepG2 cells.
In series [5] the test system is HepG2 cells. Description: cells. To be noted: Homo sapiens, HepG2, read-out: HepG2 IC50.
Series [6] relates to Chinese hamster ovary (CHO-K1) cell line. Description: cells. To be noted: Cricetulus griseus, CHO-K1, 24 h, read-out: CHO-K1 IC50.
In series [7] the test system is renal cell adenocarcinoma (ACHN) cell line. Description: cells. The note with it: Homo sapiens, 24 h, read-out: ACHN IC50.
The nature of a further series: in vitro. To be noted: human.
The nature of series [8]: Solubility in antimycobacterial testing medium (observation). The series is classed as physicochemical.
Series [9] relates to Chinese hamster ovary (CHO-K1) cell line.
Series [10] concerns renal cell adenocarcinoma (ACHN) cell line.
For series [11] the following is noted: RP-HPLC, C18, MeOH 70% / H2O 30%, 30 °C.
Series [12] concerns HepG2 cells. To be noted: comparable HepG2 cytotoxicity assay; cited from earlier work.
[13] abbreviates: Mycobacterium tuberculosis, H37RV, M. tuberculosis H37Rv, retest with extended dilution scale up to 0.39 µg/mL, read-out: Antimycobacterial activity MIC, M. tbc (confirmation retest, value in parentheses).
[14] abbreviates: Mycobacterium tuberculosis, H37RV, MIC converted to molar concentrations, read-out: M. tbc H37Rv MIC.
Where [15] appears, read: Mycobacterium tuberculosis, H37RV, pH 5.6, M. tuberculosis H37Rv, primary test, dilution scale 100–[…], Šula's medium pH 5.6, read-out: Antimycobacterial activity MIC, M. tbc.
Setting [16] is: M. kansasii Hauduroy CNCTC My 235/80.
The mark [17] stands for this setting: SI calculated for M. tbc as IC50 (HepG2)/MIC (in μM) using the lower MIC values (Table 1).
[18] abbreviates: Mycobacterium tuberculosis, H37RV, read-out: M. tbc H37Rv MIC (µM), MIC converted to molar concentrations.

Values after ≈ are worked out from the molar mass of the structure shown. Where two headings read alike, the source gives them in different places.

As to `O=C(Nc1ccc(O)cc1)c1cnc(Cl)cn1` [Compound 4, 5-Chloro-N-(4-hydroxyphenyl)pyrazine-2-carboxamide], the MIC in series [1] (setting [13]) is 12.5 µg/mL; in series [1] (setting [14]), 12.5 µM; in series [1] (setting [15]), 3.13 µg/mL; in series [2] (setting [16]) it was 100 µg/mL (≈ 401 µM); in series [3], over 100 µg/mL; in the series on M. avium CNCTC My 152/73, 50 µg/mL (≈ 200 µM). In addition, in [2], the “Activity against M. kansasii (in words)” value was “inactive”. Further, the “Cytotoxicity SI” value in the series on HepG2 cells [4] (setting [17]) is listed as 5.47. For the same molecule, the half-maximal inhibitory concentration (IC50) in the series with HepG2 cells [5] turned out to be 69 µM; in series [6], 48 ± 4 µM; in series [7] it was 100 ± 39 µM; in the series “in vitro”, 68.6 µM.
In the case of `NC(=O)c1cnc(Cl)cn1` [Compound 5-Cl-PZA, 5-chloropyrazine-2-carboxamide, reference compound], the MIC was 25 µg/mL in series [1] (setting [15]); 159 µM in series [1] (setting [18]); 12.5 µg/mL (≈ 79.3 µM) in series [2] (setting [16]); over 100 µg/mL in [3]; over 100 µg/mL with M. avium CNCTC My 152/73. The “Cytotoxicity SI” value in the series on HepG2 cells [4] (human) is recorded as 10.0. The IC50 came to 1590 µM in the series with HepG2 cells [5], 290 ± 43 µM in series [6], 540 ± 120 µM in series [7] and 1590 µM in the series “in vitro”.
As to `COc1ccc(NC(=O)c2cnc(Cl)cn2)c(OC)c1` [Compound 5], the “Antimycobacterial activity against M. tbc H37Rv (in words)” value (shortened to “Antimycobacterial activity … (in words)”) in series [1] is “inactive”. Further, the MIC (in series [1] (setting [15]); in series [2] (setting [16]); in [3]; in the series with M. avium CNCTC My 152/73) was over 50 µg/mL throughout. The “Solubility in testing medium (in words)” value in series [8] is reported as “Insufficient solubility”.
In turn, `O=C(Nc1cc(Cl)c(Cl)cc1Cl)c1cnc(Cl)cn1` [Compound 15, 5-Chloro-N-(2,4,5-trichlorophenyl)pyrazine-2-carboxamide] returned a melting point of 189.3 to 192.4 °C. In series [1], the “Antimycobacterial activity … (in words)” value is “inactive or weakly active”. Moreover, in series [1] (setting [15]), the MIC was over 100 µg/mL. In [2] (setting [16]), this molecule gave an MIC of over 100 µg/mL. Besides, in series [3], the MIC is over 100 µg/mL. Also, the MIC against M. avium CNCTC My 152/73 was over 100 µg/mL. Besides, the “Solubility in testing medium (in words)” value in series [8] is “low solubility”.
`O=C(Nc1ccc(I)cc1Cl)c1cnc(Cl)cn1` [Compound 18, 5-Chloro-N-(2-chloro-4-iodophenyl)pyrazine-2-carboxamide] returned a melting point of 175.6 to 177.3 °C. The “Antimycobacterial activity … (in words)” value in series [1] was “inactive or weakly active”. In addition, the MIC in [1] (setting [15]) was found to be 12.5 µg/mL. Further, the “Activity against M. kansasii (in words)” value in [2] was “most active”. Further, in series [2] (setting [16]), the MIC was 1.56 µg/mL (≈ 3.96 µM). This molecule gave an MIC in series [3] of over 50 µg/mL. Also, the MIC with M. avium CNCTC My 152/73 was over 50 µg/mL. Also, the “Solubility in testing medium (in words)” value in series [8] is listed as “low solubility”.
For the molecule `O=C(Nc1cc(Cl)ccc1O)c1cnc(Cl)cn1` [Compound 21, 5-Chloro-N-(5-chloro-2-hydroxyphenyl)pyrazine-2-carboxamide], the MIC came to 6.25 µg/mL in [1] (setting [13]); 5.5 µM in [1] (setting [14]); 1.56 µg/mL in series [1] (setting [15]); 12.5 µg/mL (≈ 44 µM) in [2] (setting [16]); 12.5 µg/mL (≈ 44 µM) in [3]; 12.5 µg/mL (≈ 44 µM) in the series with M. avium CNCTC My 152/73. Moreover, the “Antimycobacterial activity MIC, M. kansasii” value in series [2] (setting [16]) stood at 12.5 µg/mL. For the same molecule, the “Antimycobacterial activity MIC, M. avium” value (in series [3]; with M. avium CNCTC My 152/73) was 12.5 µg/mL throughout. Also, the “Cytotoxicity SI” value in the series with HepG2 cells [4] (setting [17]) is on record as 7.39. For the same molecule, the IC50 was 41 µM in the series on HepG2 cells [5], 39 ± 2 µM in series [6], 51 ± 14 µM in series [7] and 40.6 µM in “in vitro”.
In the case of `O=C(Nc1ccc(C(=O)O)c(O)c1)c1cnc(Cl)cn1` [Compound 30, 4-(5-Chloropyrazine-2-carboxamido)-2-hydroxybenzoic acid], the melting point is 240 to 244 °C (dec.). In addition, the MIC in series [1] (MIC converted to molar concentrations, read-out: M. tbc H37Rv MIC) worked out at 10.7 µM. Also, in series [1] (MIC for M. tbc H37Rv in µM compared), the “Activity in comparison with PZA (times more active)” value is listed as 5–10 times. In series [1] (setting [15]), the MIC was 3.13 µg/mL. In addition, in series [1] (setting [18]), the MIC came out at 10 µM. Besides, the MIC in series [3] was over 100 µg/mL. The same molecule showed an MIC with M. avium CNCTC My 152/73 of over 100 µg/mL. In addition, the “Cytotoxicity rating in CHO-K1 cell line (in words)” value in series [9] is listed as “non-toxic”. The “Cytotoxicity rating in ACHN cell line (in words)” value in series [10] is on record as “non-toxic”. For the same molecule, in series [6], the IC50 amounted to 502 ± 122 µM. Besides, the IC50 in [7] came to 371 ± 96 µM.
`NNC(=O)c1ccncc1` [INH, isoniazid, reference compound]: the MIC was in the range of 0.39 to 0.78 µg/mL in series [1] (setting [15]), 12.5 to 25 µg/mL (≈ 91.1 to 182 µM) in series [2] (setting [16]), 12.5 to 25 µg/mL (≈ 91.1 to 182 µM) in [3] and 3.13 to 6.25 µg/mL (≈ 22.8 to 45.6 µM) in the series on M. avium CNCTC My 152/73. In addition, the Lipophilicity logk in series [11] is given as −0.743. Further, the half-inhibitory concentration (IC50) in the series with HepG2 cells [12] was 79000 µM.
Take `NC(=O)c1cnccn1` [PZA, pyrazinamide, reference compound]: the MIC is 6.25 to 12.5 µg/mL in [1] (setting [15]); 51 to 102 µM in [1] (setting [18]); over 100 µg/mL in [2] (setting [16]); over 100 µg/mL in series [3]; over 100 µg/mL with M. avium CNCTC My 152/73. The “Cytotoxicity SI” value in the series with HepG2 cells [4] (human) is reported as over 196. In series [11], this molecule displayed a Lipophilicity logk of −0.687. The IC50 in “in vitro” is over 10000 µM.

The term IC50 denotes the concentration needed to halve the response being measured. The term melting point denotes the temperature, or range, at which the solid turns liquid.
